Like-named read-outs stand apart in the source and are kept apart here.
How the values were obtained:
[1] = tested on: trypomastigote forms of T. cruzi; assay: Phenotypic screening against T. cruzi trypomastigotes (Dm28c-Luc, luciferase viability, 24 h); type: cell-based, Trypanosoma cruzi; settings: for IC50 / IC90: Trypanosoma cruzi, Dm28c-Luc, 24 h; for IC50: read-out: Trypanocidal Activity Trypomastigotes IC50; for IC90: read-out: Trypanocidal Activity Trypomastigotes IC90
From the text: (§1) T. cruzi Dm28c clone genetically modified to express luciferase, kindly provided by Dr. Cristina Henriques from Oswaldo Cruz Institute–Fiocruz, was used in the drug assays. Trypomastigotes were harvested from T. cruzi-infected Vero cultures supernatants at 4th days post-infection (dpi) and used in the phenotypic screening assay. For intracellular amastigotes assays, Vero cells (2D and 3D cultures) were infected at a ratio of 10:1 parasites/host cells.
The phenotypic compound screening was performed using transgenic T. cruzi parasites expressing the firefly luciferase (Dm28c-Luc). Trypomastigotes (1 × 10^6 parasites/well) were treated for 24 h at 37 °C with the pyrazole derivatives and Bz (0.04–100 μM), followed by incubation with luciferin substrate (300 µg/mL) to determine parasite viability through luciferase activity. The concentration that reduces the number of viable parasites by 50% (IC50) or 90% (IC90) was calculated by linear regression. The luminescent signal was read on a Glomax-Multi Detection plate reader (Promega Corporation, Madison, WI, EUA)). At least three independent assays were performed in duplicate.

[2] = tested on: intracellular amastigotes of T. cruzi; assay: Activity against intracellular amastigotes in infected Vero cells (Dm28c-Luc, 72 h); type: cell-based, Trypanosoma cruzi; settings: for Intracellular Amastigotes SI: CC50 of Vero cells/IC50 of intracellular amastigote; for IC50 / IC90: Trypanosoma cruzi; for IC90: read-out: Trypanocidal Activity Intracellular Amastigotes IC90
From the text: as §1
The effect of the pyrazole derivatives against intracellular amastigotes was also evaluated after 72 h treatment (37 °C) with compound concentrations ranging from 0.04–100 µM [13]. Parasite viability, measured by luminescent signal, was determined after luciferin (300 µg/mL) addition. IC50 and IC90 values were calculated by linear regression. Selectivity index (SI) was calculated as the ratio of the CC50 to IC50 values. The non-toxic concentration of DMSO (less than 1% v/v) was used in all assays. A minimum of three independent assays was carried out in duplicate.

[3] = Cytotoxicity in vitro assay (ATP, CellTiter Glo, 72 h); type: cell-based; settings: African green monkey, Vero cells
Description: Vero cells, obtained from the Rio de Janeiro Cell Bank (BCRJ code 0245), were cultured in RPMI-1640 supplemented with 10% fetal bovine serum (FBS) and 1 mM L-glutamine, as previously described. Vero cells were used for drug screening assays and to obtain trypomastigote forms of T. cruzi.
Vero cells were used as a cellular model to analyze the toxic effect of pyrazole derivatives, series 1(a–l), 2(a–l), 3(a–n), 4(a–c), and 5(a–c), and Benznidazole (Bz) on mammalian cells. Briefly, the cells, plated on 96-well white opaque microplate (1.5 × 10^4 cells/well), were treated for 72 h at 37 °C with a wide range concentration (500–1.95 µM) of the pyrazole derivatives. The cell viability was determined by measuring ATP levels using the CellTiter Glo Kit (Promega Corporation, Madison, WI, EUA) followed by reading the luminescent signal on the Glomax-Multi Detection plate reader (Promega Corporation, Madison, WI, EUA)). All treatments and controls were performed at a low concentration of DMSO (≤1%). The 50% cytotoxic concentration values (CC50; the concentration of the compound that reduces 50% of the cell viability) were estimated by linear regression analysis. Three independent assays were performed in duplicate.

[4] = tested on: T. cruzi (Dm28c-Luc) in Vero cells; assay: Reversibility (washout) assay, parasite recrudescence in infected Vero cells; type: cell-based, Trypanosoma cruzi; settings: 100 µM, 72 h after washout
Description: To address the question of whether the treatment with 3g, 3j, and 3m leads to parasite clearance, an intracellular T. cruzi washout assay was performed as a strategy for monitoring the parasite recrudescence. In this approach, cultures of infected Vero cells (Dm28c-Luc) were treated for 72 h at IC90 and 50 µM (2 to 5-fold de IC90) concentrations of the promising compounds 3g, 3j, and 3m and, after washing the cell monolayers, the cultures were kept for another 72 h without drug treatment. Both cell monolayers and their supernatants were evaluated for the presence of viable parasites after luciferin addition. All derivatives analyzed relapsed at the IC90 concentration (Figure 3). However, treatment with 3g, 3j, and 3m led to a significant reduction in the parasite load, reaching a decrease of 4.5-, 1.9-, and 8.7-fold, respectively, when compared to untreated infected Vero cells cultures (Figure 3). The emergence of trypomastigotes in the supernatant, at IC90 concentration, was observed three days after removal of drug pressure, but with a significant reduction in viable parasites compared to untreated cultures (Figure 3). Parasite recrudescence was not seen in 100 µM Bz treatment (Figure 3).
The washout assay, adapted from, was performed to evaluate the promising compounds efficacy. […] After successive washing, the cultures were maintained for an additional 72 h at 37 °C in RPMI 1640 medium supplemented with 10% SFB in the absence of the compound. Luciferin (300 µg/mL) was added separately to the culture supernatant, previously removed, and the cell monolayer. The luminescent signal was read on the Glomax-Multi Detection reader (Promega Corporation, Madison, WI, USA). Bz (100 µM) and DMSO (≤1%) were used as positive and negative reaction controls, respectively.

[5] = tested on: intracellular parasites in T. cruzi-infected microtissue; assay: 3D-microtissue-based phenotypic screening (T. cruzi-infected Vero spheroids); type: cell-based, Trypanosoma cruzi; settings: 72 h treatment; Bz 100 µM
Description: Vero cells were seeded at a density of 2 × 10^5 cells/well in a 96-well U-bottom plate previously coated with agarose (1%). The 3D cultures, adapted from, were cultivated for 4 days in RPMI 1640 medium supplemented with 10% FBS and L-glutamine for complete 3D microtissue formation. The 3D culture model was used as a tool to evaluate the effectiveness of promising derivatives in eliminating intracellular parasites in the microtissue.
The 3D-microtissue-based phenotypic screening was performed with the promising pyrazole derivatives. […] At the end of the treatment, the 3D cultures supernatants were removed, and luciferin (300 μg/mL) was added to the spheroids. The luminescent signal was read on the Glomax-Multi Detection reader (Promega Corporation, Madison, WI, USA). Bz (100 µM) and DMSO (≤1%) were used as positive and negative control, respectively. The IC50 value was calculated by linear regression. At least three independent assays were performed in quadruplicate.

[6] = Vero, negative log of the IC50 value in molar, read-out: Intracellular Amastigotes pIC50 (converted)
[7] = Vero cells infected with Dm28c-Luc, 72 h
[8] = Vero, 72 h, Vero cells infected with Dm28c-Luc, 72 h, read-out: Trypanocidal Activity Intracellular Amastigotes IC50

Row | SMILES | Trypomastigotes SI ([1]; CC50 of Vero cells/IC50 of trypomastigote) | IC50 [1] | IC90 [1] | Intracellular Amastigotes SI [2] | IC50 [2, 6] | IC50 ([2]; Vero cells infected with Dm28c-Luc, 72 h, read-out: Trypanocidal Activity Intracellular Amastigotes IC50) | IC90 [2, 7] | CC50 at 72 h [3] | parasite recrudescence [4] | viability of intracellular parasites in microtissue, luminescence intensity (ALU) [5] | IC50 [2, 8] | melting point | fold drop in activity on moving Cl or Br to the meta position ([2]; 3b compared to 3g, 3k compared to 3j)
1 | O=C(Cn1ccnc1[N+](=O)[O-])NCc1ccccc1 [Bz, benznidazole, reference compound] | >26.7 | 18.7 ± 4.58 µM | > 100 µM | >107 | 4.68 µM | 4.67 ± 0.22 µM | > 100 µM | > 500 µM | not seen | 18,858 ± 3726 ALU |  |  | 
2 | Fc1ccc(-n2cc(C3=NCCN3)cn2)cc1 [Compound 3h, 4-(4,5-dihydro-1H-imidazol-2-yl)-1-(4-fluorophenyl)-1H-pyrazole] |  | > 100 µM |  |  | 64.6 µM |  | > 100 µM | > 500 µM |  |  | 64.5 ± 3.81 µM | 210 to 212 °C | 
3 | Fc1cccc(-n2cc(C3=NCCN3)cn2)c1 [Compound 3i, 4-(4,5-dihydro-1H-imidazol-2-yl)-1-(3-fluorophenyl)-1H-pyrazole] |  | > 100 µM |  |  | 64.6 µM |  | > 100 µM | > 500 µM |  |  | 64.1 ± 7.09 µM | 164 to 167 °C | 
4 | Brc1cccc(-n2cc(C3=NCCN3)cn2)c1 [Compound 3k, 1-(3-bromophenyl)-4-(4,5-dihydro-1H-imidazol-2-yl)-1H-pyrazole] |  | > 100 µM |  | 7.84 | 26.9 µM |  | 72.9 ± 3.67 µM | 211 ± 31.7 µM |  |  | 26.9 ± 2.19 µM | 116 to 120 °C | 10 fold
5 | COc1ccc(-n2cc(C3=NCCN3)cn2)cc1 [Compound 3l, 4-(4,5-dihydro-1H-imidazol-2-yl)-1-(4-methoxyphenyl)-1H-pyrazole] |  | > 100 µM |  | >7 | 72.4 µM |  | > 100 µM | > 500 µM |  |  | 71.8 ± 2.71 µM | 196 to 197 °C | 
6 | Cc1cc(Cl)ccc1-n1cc(C2=NCCN2)cn1 [Compound 3n, 1-(4-chloro-2-methylphenyl)-4-(4,5-dihydro-1H-imidazol-2-yl)-1H-pyrazole] |  | > 100 µM |  | 13.86 | 24.5 µM |  | 85.7 ± 5.03 µM | 342 ± 30 µM |  |  | 24.7 ± 3.42 µM | 174 to 176 °C | 
7 | Cc1nn(-c2cccc(Cl)c2)c(N)c1C1=NCCN1 [Compound 4a, 5-amino-1-(3-chlorophenyl)-3-methyl-4-(4,5-dihydro-1H-imidazol-2-yl)-1H-pyrazole] |  | > 100 µM | > 100 µM |  | > 100 µM |  | > 100 µM | > 500 µM |  |  | > 100 µM | 116 to 120 °C | 
8 | Cc1nn(-c2cc(Cl)cc(Cl)c2)c(N)c1C1=NCCN1 [Compound 4b, 5-amino-1-(3,5-dichlorophenyl)-3-methyl-4-(4,5-dihydro-1H-imidazol-2-yl)-1H-pyrazole] |  | > 100 µM | > 100 µM | >5.51 | 91.2 µM |  | > 100 µM | > 500 µM |  |  | 90.7 ± 13.2 µM | 193 to 194 °C | 
9 | Cc1nn(-c2ccc(Cl)c(Cl)c2)c(N)c1C1=NCCN1 [Compound 4c, 5-amino-1-(3,4-dichlorophenyl)-3-methyl-4-(4,5-dihydro-1H-imidazol-2-yl)-1H-pyrazole] |  | > 100 µM | > 100 µM | 3.78 | 93.3 µM |  | > 100 µM | 355 ± 17.7 µM |  |  | 93.8 ± 16.4 µM | 221 to 224 °C | 
10 | CC1CN=C(c2cnn(-c3cccc(Cl)c3)c2N)N1 (centres unmarked) [Compound 5a, 5-amino-1-(3-chlorophenyl)-4-(4-(5)-methyl-4,5-dihydro-1H-imidazol-2-yl)-1H-pyrazole] |  | > 100 µM | > 100 µM |  | > 100 µM |  | > 100 µM | > 500 µM |  |  | > 100 µM | 169 to 172 °C | 
11 | CC1CN=C(c2cnn(-c3cc(Cl)cc(Cl)c3)c2N)N1 (centres unmarked) [Compound 5b, 5-amino-1-(3,5-dichlorophenyl)-4-(4-(5)-methyl-4,5-dihydro-1H-imidazol-2-yl)-1H-pyrazole] |  | > 100 µM | > 100 µM | >15.17 | 33.1 µM |  | > 100 µM | > 500 µM |  |  | 33 ± 8.84 µM | 189 to 192 °C | 
12 | CC1CN=C(c2cnn(-c3ccc(Cl)c(Cl)c3)c2N)N1 (centres unmarked) [Compound 5c, 5-amino-1-(3,4-dichlorophenyl)-4-(-4(5)-methyl-4,5-dihydro-1H-imidazol-2-yl)-1H-pyrazole] |  | > 100 µM | > 100 µM |  | 34.7 µM |  | > 100 µM | 343 ± 37 µM |  |  | 34.3 ± 4.24 µM | 191 to 193 °C | 
